Measured values reported in US7169785B2, “Methods and compositions of novel triazine compounds” (Reddy US Therapeutics, Inc., priority 2001, dated 2007).
Read-outs that look alike come from different tables or passages of the source.

How the values were obtained:
IL-6 [1] = test: AGE (G-HSA)-induced inflammatory response determined by IL-6 ELISA in HAEC; format: cell-based, human; conditions: Homo sapiens, 24 h, Compds tested @ 10 uM, IL6, read-out: % IL6 production compare to AGE stimulation of IL6 (100%)
Summary of the method: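 Human aortic endothelial cells grown to ≥90% confluence, then treated with compounds and stimuli in serum-free medium with 0.2% albumin. Secreted IL-6 in collected media measured by sandwich ELISA (2 ug/ml capture, 200 ng/ml biotinylated detection antibody, streptavidin-HRP), read at 450 nm.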

IL-6 [2] = test: TNF-α-induced IL-6 production determined by IL-6 ELISA in HAEC; format: cell-based, human; conditions: HAEC; for Inhibition of TNF-induced IL6 production: class of % of control IL6 production
heparanase = test: Induction and measurement of endothelial heparanase protein (TNF-induced heparanase secretion); format: cell-based, human; conditions: for inhibition at 5 µM / inhibition at 10 µM: Homo sapiens; for Relative Activity: inhibition of TNF-induced heparanase secretion, scale at 5 uM compound concentration
Description: Experiments were carried out on human microvascular endothelial cells (HMVEC) grown in 48-well plates (˜90% confluency). To induce heparanase activity, culture media was replaced with 200 μl Dulbecco's Modified Eagle's medium (DMEM) complemented with 1% bovine serum albumin (BSA) and with or without stimulants (5 ng/ml TGF-alpha, 1 ng/ml IL 1alpha, 200 ng/ml VEGF or other stimulants, cytokines, or inducers as required). The secreted proteins were analyzed by SDS/PAGE and heparanase protein was detected by immunoblotting using polyclonal anti-human heparanase antibody. The changes of heparanase expression determined by densitometric analysis. The induction and measurement of endothelial heparanase protein reported in the Tables herein were carried out according to this Example.

[3] = test system: Human aortic smooth muscle cells; test: Smooth muscle cell proliferation assay (anti-proliferation assay, perlecan); format: cell-based; conditions: Homo sapiens, anti-proliferation assay (perlecan)
[4] = Homo sapiens, 24 h, Compds tested @ 10 uM, IL6, read-out: % IL6 production compare to TNF stimulation of IL6 (100%)

SMILES: CCN1CCCC1CNc1nc(Nc2ccccc2C)nc(NC2CCCCCC2)n1 (stereo not shown) [Compound 35, N^2-cycloheptyl-N^4-[(1-ethyl-2-pyrrolidinyl)methyl]-N^6-(2-methylphenyl)-1,3,5-triazine-2,4,6-triamine]
- activity at 10 µM (IL-6 [1]): 4%
- activity at 10 µM (IL-6 [2]; [4]): 34%
- inhibition at 5 µM (heparanase): 53%
- Relative Activity (heparanase): ++ (30–40% inhibition)

SMILES: CCN1CCCC1CNc1nc(Nc2ccc(OC)c(F)c2)nc(NC(C)(C)C)n1 (stereo not shown) [Compound 52, N^2-(tert-butyl)-N^4-[(1-ethyl-2-pyrrolidinyl)methyl]-N^6-(3-fluoro-4-methoxyphenyl)-1,3,5-triazine-2,4,6-triamine]
- activity at 10 µM (IL-6 [1]): 35%
- activity at 10 µM (IL-6 [2]; [4]): 1%
- inhibition at 10 µM (heparanase): 40 to 60%
- Relative Activity (heparanase): + (0–30% inhibition)

SMILES: CCNc1nc(Nc2ccc(OC)c(F)c2)nc(NC2CCCCCC2)n1 [Compound 76, N^2-cycloheptyl-N^4-ethyl-N^6-(3-fluoro-4-methoxyphenyl)-1,3,5-triazine-2,4,6-triamine]
- activity at 10 µM (IL-6 [2]; [4]): 18%
- inhibition at 5 µM (heparanase): 50%
- Relative Activity (heparanase): ++ (30–40% inhibition)

SMILES: COc1ccc(Nc2nc(NC3CCCCCC3)nc(N3CCCC3)n2)cc1F [Compound 82, N^2-cycloheptyl-N^4-(3-fluoro-4-methoxyphenyl)-6-(1-pyrrolidinyl)-1,3,5-triazine-2,4-diamine]
- activity at 10 µM (IL-6 [2]; [4]): 34%
- inhibition at 5 µM (heparanase): 73%
- Relative Activity (heparanase): +++ (70–100% inhibition)

SMILES: COc1ccc(Nc2nc(NC3CCCCCC3)nc(N3CCN(C)CC3)n2)cc1F [Compound 87, N^2-cycloheptyl-N^4-(3-fluoro-4-methoxyphenyl)-6-(4-methyl-1-piperazinyl)-1,3,5-triazine-2,4-diamine]
- activity at 10 µM (IL-6 [1]): 5%
- inhibition at 10 µM (heparanase): 40 to 60%
- Relative Activity (heparanase): + (0–30% inhibition)

SMILES: COc1ccc(Nc2nc(NC(C)C)nc(N(C)C3CCNCC3)n2)cc1Cl [Compound 107, N^2-(3-chloro-4-methoxy-phenyl)-N^4-isopropyl-N^6-methyl-N^6-piperidin-4-yl-1,3,5-triazine-2,4,6-triamine]
- Inhibition of TNF-induced IL6 production (IL-6 [2]): ++ (between about 50 and about 75% of control IL6 production)
- activity at 5 µM (IL-6 [2]; Homo sapiens, 24 h, read-out: % IL6 production compare to TNF stimulation of IL6 (100%), @ 5 uM, IL6): 60%
- melting point: 129 °C

SMILES: COc1ccc(Nc2nc(NCCCCCO)nc(N(C)C3CCNCC3)n2)cc1Cl [Compound 109, 5-[4-(3-chloro-4-methoxy-phenylamino)-6-(methyl-piperidin-4-yl-amino)-1,3,5-triazin-2-ylamino]-pentan-1-ol]
- Inhibition of TNF-induced IL6 production (IL-6 [2]): +++ (between about 25 and about 50% of control IL6 production)
- activity at 10 µM (IL-6 [2]; Homo sapiens, 24 h, read-out: % IL6 production compare to TNF stimulation of IL6 (100%), Compds tested @ 10 uM, IL6): 40%
- melting point: 101 °C

SMILES: COc1ccc(Nc2nc(Cl)nc(NCC3CCCCC3)n2)cc1F [Compound 125, 6-Chloro-N-cyclohexylmethyl-N′-(3-fluoro-4-methoxy-phenyl)-[1,3,5]triazine-2,4-diamine]
- melting point: 156 °C
- IC50 ([3]; read-out: Activity (note 1)): > 7 µM
- IC50 ([3]; read-out: Avg IC-50): 10 µM

SMILES: COc1ccc(Nc2nc(NC3CCCCCC3)nc(N(C)C3CCNCC3)n2)cc1Cl [Compound 146, N^2-(3-chloro-4-methoxy-phenyl)-N^4-cycloheptyl-N^6-methyl-N^6-piperidin-4-yl-1,3,5-triazine-2,4,6-triamine]
- melting point: 114 to 116 °C
- IC50 ([3]; read-out: Activity (note 1)): < 3 µM
- IC50 ([3]; read-out: Avg IC-50): ~2.2 µM

SMILES: COc1ccc(Nc2nc(NC3CCCCCC3)nc(OCC3CCCN3)n2)cc1Cl (stereo not shown) [Compound E22, N^2-(3-chloro-4-methoxyphenyl)-N^4-cycloheptyl-6-(2-azolanylmethoxy)-1,3,5-triazine-2,4-diamine]
- melting point: 84 to 86 °C

SMILES: COc1ccc(Nc2nc(NC3CCCCCC3)nc(Oc3ccccc3F)n2)cc1Cl [Compound E28, N^2-(3-chloro-4-methoxyphenyl)-N^4-cycloheptyl-6-(2-fluorophenoxy)-1,3,5-triazine-4,2-diamine]
- melting point: 98 to 100 °C
